# From US20190105367A1, “ANTIMICROBIAL 4-OXOQUINOLIZINES” (Emergent Product Development Gaithersburg Inc., priority 2011, published 2019)
# Read-outs that look alike come from different tables or passages of the source.
# Key:
# B. thailandensis = format: cell-based, Burkholderia thailandensis; conditions: for Dilutions improvement shift on B. thailandensis MIC90 (between pH 7 and pH 5): pH 7 vs pH 5
# S. aureus 25923 HS = assay: MIC, standard panel of Gram-positive and Gram-negative strains (Example 2); format: cell-based; conditions: Staphylococcus aureus, read-out: MIC S. aureus 25923 HS
# S. pneumoniae 1027 = assay: MIC, panel of quinolone-resistant strains (Example 2); format: cell-based; conditions: Streptococcus pneumoniae, LEV R
# S. aureus SMITH = assay: as above; format: cell-based; conditions: Staphylococcus aureus, read-out: MIC S. aureus SMITH
# E. coli IMP = assay: microbe, parasite or virus in culture; conditions: Escherichia coli, read-out: MIC E. coli IMP
# P. aeruginosa 27853 = assay: MIC, standard panel of Gram-positive and Gram-negative strains (Example 2); format: cell-based; conditions: Pseudomonas aeruginosa
# E. coli 25922 = assay: as above; format: cell-based; conditions: Escherichia coli
# S. aureus ATCC 25923 = assay: MIC, selected panel of bacterial strains (Example 5); format: cell-based, Staphylococcus aureus; conditions: Staphylococcus aureus, ATCC25923; read-out: MICs against Gram positive bacteria S. aureus ATCC 25923
# A. baumannii ATCC 19606 = assay: MIC determination for Acinetobacter strains (Example 3); format: cell-based, Acinetobacter baumannii; conditions: reference strain
# A. baumannii J2 = assay: as above; format: cell-based, Acinetobacter baumannii; conditions: LEV R, CIP R
# A. baumannii A489 = assay: as above; format: cell-based, Acinetobacter baumannii; conditions: LEV R, CIP R, MRP R, IMP R, AMK R, TET R
# A. baumannii A387 = assay: as above; format: cell-based, Acinetobacter baumannii; conditions: LEV I, CIP R, IPM R, AMK R, TET R
# A. baumannii A329 = assay: as above; format: cell-based, Acinetobacter baumannii; conditions: LEV R, CIP R, MRP R, IMP R, AMK R, TET R
# [1] = test system: Acinetobacter spp. H064200250; assay: as above; format: cell-based, Acinetobacter sp.; conditions: LEV R, CIP R, MRP R, IMP I
# A. baumannii A390 = assay: as above; format: cell-based, Acinetobacter baumannii; conditions: LEV R, CIP R, MRP R, IPM I, AMK R, TET I
# A. baumannii A472 = assay: as above; format: cell-based, Acinetobacter baumannii; conditions: LEV R, CIP R, MRP I, IMP I, AMK R, TET R
# A. baumannii A401 = assay: as above; format: cell-based, Acinetobacter baumannii; conditions: LEV R, CIP R, AMK R, TET R
# A. baumannii A473 = assay: as above; format: cell-based, Acinetobacter baumannii; conditions: LEV R, CIP R, MRP R, IMP R, AMK R, TET R
# [2] = test system: GN48 Klebsiella pneumoniae; assay: Pre-chequerboard MIC for synergy study (Example 6); format: cell-based; conditions: NCTC 13443, NDM-1
# Text: (§1) A chequerboard technique was used to identify possible synergistic or antagonistic interactions between the 4-oxoquinolizines compounds, levofloxacin and polymyxin B. Levofloxacin was included as a control. […] Final dilutions were made in Mueller-Hinton broth, the specific test medium used for MIC determinations according to CLSI guidelines (CLSI. Methods for Dilution Antimicrobial Susceptibility Tests for Bacteria That Grow Aerobically; Approved Standard-Eighth Edition (2009). CLSI Document M07-A8. CLSI, Wayne, Pa. 19087-1898, USA.). The test medium used was a cation-adjusted Mueller-Hinton Broth II (Becton Dickinson UK Ltd., Oxford Science Park, Oxford, UK, OX4 4DQ).
# (§2) The compounds 2, 33 and 35, as well as levofloxacin were tested in combination with polymyxin B on the following isolates: GN31 Acinetobacter baumannii—antibiotic susceptible clinical isolate, GN52 Acinetobacter baumannii—levofloxacin resistant clinical isolate, GN56 Acinetobacter baumannii—levofloxacin resistant clinical isolate, GN48 Klebsiella pneumoniae—NCTC 13443—NDM-1-metallo-β-lactamase and GN10 Pseudomonas aeruginosa—ATCC 27853—antibiotic susceptible reference isolate. All isolates are from the collection maintained at Quotient Bioresearch Ltd., Cambridge, UK.
# (§3) The MIC values for the compounds and polymyxin B and levofloxacin were determined by broth microdilution following CLSI guidelines, and the MICs of agents in combination were determined as described by Pillai et. al (Pillai S K, Moellering R C Jr, Eliopoulis G M; Antimicrobial Combinations in Antibiotics in Laboratory Medicine 5th Edition (V. Lorian Ed) (2005) p 365-440). Initial MIC results were used to determine the microtiter plate patterns for the chequerboards. A suitable doubling dilution concentration range was selected such that the combination antibiotic range was at least two concentrations above and four concentrations below the MIC for each isolate. A fixed range of 0.008 to 8 mg/L was tested for polymyxin B except in the case of A. baumannii GN31 where a range of 0.004 to 4 mg/L was tested when in combination with the compounds 2, 33 and 35 as well as levofloxacin.
# [3] = test system: GN10 Pseudomonas aeruginosa; assay: Pre-chequerboard MIC for synergy study (Example 6); format: cell-based; conditions: ATCC 27853, antibiotic susceptible
# Text: as §1, §2, §3
# [4] = test system: GN56 Acinetobacter baumannii; assay: Pre-chequerboard MIC for synergy study (Example 6); format: cell-based; conditions: levofloxacin resistant clinical isolate
# Text: as §1, §2, §3
# [5] = test system: GN31 Acinetobacter baumannii; assay: Pre-chequerboard MIC for synergy study (Example 6); format: cell-based; conditions: antibiotic susceptible clinical isolate
# Text: as §1, §2, §3
# [6] = test system: GN52 Acinetobacter baumannii; assay: Pre-chequerboard MIC for synergy study (Example 6); format: cell-based; conditions: levofloxacin resistant clinical isolate
# Text: as §1, §2, §3
compound,measurement,setting,value
"8-[(3S)-3-aminocyclopentyl]-1- cyclopropyl-7-fluoro-9-methyl- 4-oxo-quinolizine-3-carboxylic acid [Compound 10, reference compound]",MIC90 B. thailandensis,B. thailandensis,<0.048 mg/L
same,Dilutions improvement shift on B. thailandensis MIC90 (between pH 7 and pH 5),B. thailandensis,"Yes, 2x"
"Cc1c(-c2ccc(N)c(F)c2)ccn2c(=O)c(C(=O)O)cc(C3CC3)c12 [Compound 1, 8-(3-fluoro-4-amino-phenyl)-1-cyclopropyl-9-methyl-4-oxo-quinolizine-3-carboxylic acid]",Dilutions improvement shift on B. thailandensis MIC90 (between pH 7 and pH 5),B. thailandensis,"Yes, 4x"
"Cc1c(-c2cc(F)c(N)cc2F)ccn2c(=O)c(C(=O)O)cc(C3CC3)c12 [Compound 2, 8-(4-amino-2,5-difluorophenyl)-1-cyclopropyl-9-methyl-4-oxo-4H-quinolizine-3-carboxylic acid]",MIC,S. aureus 25923 HS,0.125 mg/L
same,MIC,S. pneumoniae 1027,0.5 mg/L
"Cc1c(-c2cc(Cl)c(N)c(Cl)c2)ccn2c(=O)c(C(=O)O)cc(C3CC3)c12 [Compound 3, 8-(3,5-dichloro-4-amino-phenyl)-1-cyclopropyl-9-methyl-4-oxo-quinolizine-3-carboxylic acid]",MIC,S. aureus SMITH; CIP R,0.5 mg/L
same,MIC,E. coli IMP,0.06 mg/L
"Cc1c(-c2ccc(CN)c(F)c2)ccn2c(=O)c(C(=O)O)cc(C3CC3)c12 [Compound 4, 8-(3-fluoro-4-aminomethyl-phenyl)-1-cyclopropyl-9-methyl-4-oxo-quinolizine-3-carboxylic acid]",MIC,S. aureus SMITH; CIP R,0.125 mg/L
same,MIC,S. aureus 25923 HS,0.125 mg/L
same,MIC,P. aeruginosa 27853,0.5 mg/L
"Cc1c(-c2ccc(CN)cc2)ccn2c(=O)c(C(=O)O)cc(C3CC3)c12 [Compound 5, 8-(4-aminomethyl-phenyl)-1-cyclopropyl-9-methyl-4-oxo-quinolizine-3-carboxylic acid]",MIC,S. aureus SMITH,0.125 mg/L
same,MIC,S. aureus 25923 HS,0.125 mg/L
same,MIC,P. aeruginosa 27853,0.5 mg/L
"Cc1c(-c2ccc(CN)cc2)c(F)cn2c(=O)c(C(=O)O)cc(C3CC3)c12 [Compound 6, 8-(4-aminomethyl-phenyl)-1-cyclopropyl-7-fluoro-9-methyl-4-oxo-quinolizine-3-carboxylic acid]",MIC,S. aureus SMITH,0.125 mg/L
same,Dilutions improvement shift on B. thailandensis MIC90 (between pH 7 and pH 5),B. thailandensis,No
same,MIC,E. coli IMP,0.03 mg/L
same,MIC,S. aureus 25923 HS,0.25 mg/L
"Cc1c(-c2ccc(N)cc2)c(F)cn2c(=O)c(C(=O)O)cc(C3CC3)c12 [Compound 7, 8-(4-amino-phenyl)-1-cyclopropyl-7-fluoro-9-methyl-4-oxo-quinolizine-3-carboxylic acid]",MIC,S. aureus SMITH; CIP R,0.25 mg/L
same,Dilutions improvement shift on B. thailandensis MIC90 (between pH 7 and pH 5),B. thailandensis,"Yes, 4x"
same,MIC,E. coli 25922,0.03 mg/L
"Cc1c(-c2ccc(N)cc2)ccn2c(=O)c(C(=O)O)cc(C3CC3)c12 [Compound 8, 8-(4-amino-phenyl)-1-cyclopropyl-9-methyl-4-oxo-quinolizine-3-carboxylic acid]",MIC,S. aureus 25923 HS,0.25 mg/L
same,MIC,E. coli 25922,0.03 mg/L
"C[C@H]1COc2c(N3CCN(C)CC3)c(F)cc3c(=O)c(C(=O)O)cn1c23 [Levofloxacin, reference compound]",MIC,S. aureus ATCC 25923,0.125 mg/L
Imipenem/cilastatin,MIC A. baumannii ATCC 19606,A. baumannii ATCC 19606,2 mg/L
same,MIC A. baumannii J2,A. baumannii J2,4 mg/L
same,MIC A. baumannii A489,A. baumannii A489,128 mg/L
same,MIC A. baumannii A387,A. baumannii A387,16 mg/L
same,MIC A. baumannii A329,A. baumannii A329,128 mg/L
same,MIC Acinetobacter spp. H064200250,[1],16 mg/L
same,MIC A. baumannii A390,A. baumannii A390,16 mg/L
same,MIC A. baumannii A472,A. baumannii A472,16 mg/L
same,MIC A baumannii A401,A. baumannii A401,32 mg/L
same,MIC A. baumannii A473,A. baumannii A473,32 mg/L
Polymyxin B [reference compound],Pre-chequerboard MIC GN48 Klebsiella pneumoniae,[2],1 mg/L
same,Pre-chequerboard MIC GN10 Pseudomonas aeruginosa,[3],1 mg/L
same,Pre-chequerboard MIC GN56 Acinetobacter baumannii,[4],0.5 mg/L
same,Pre-chequerboard MIC GN31 Acinetobacter baumannii,[5],0.5 mg/L
same,Pre-chequerboard MIC GN52 Acinetobacter baumannii,[6],0.5 mg/L
